Measurements from patent US20100210697A1, “PHARMACEUTICAL COMPOSITION FOR TREATMENT OF CATARACT” (R-TECH UENO, LTD., priority 2007, published 2010).

What was measured:
[1] = tested on: rats given powder feed with 30% of galactose; experiment: Cataract onset in rats fed 30% galactose feed, repeated oral administration; format: in vivo, Rats (Crj: Wistar)
Excerpt: Rats (Crj: Wistar, male, 3-week-old) were purchased and, from the next day (Day 0), a mixture of a powder feed (CRF-1, Oriental Yeast Co., ltd.) and 30% of galactose (special grade, Wako Pure Chemical Industries, Ltd., Lot# 075-00035) was freely given. From Day 0, test substance 1 was repetitively administered orally.
dissolution liquid: 0.5% methylcellulose solution test substance 1: N-{4-[2-(4-hydrazinocarbonylmethylphenyl)ethyl]-1,3-thiazol-2-yl}acetamide (compound described in Production Example)

STZ induced diabetic rat = experiment: Cataract onset in STZ induced diabetic rats, repeated instillation into both eyes; format: in vivo, Rats (Crj: Wistar); conditions: for number of onset eyes / onset of cataract (conclusion in words): Day 46; for number of onset eyes / onset rate (Day 46): instilled 10 μL per eye, 3 times a day, test substance 1 0.01 wt %, test substance 2 2 wt %; for number of onset eyes: onset eyes/total eyes; for onset of cataract (conclusion in words): STZ induced diabetic rats, instillation; for onset rate (Day 46): saline pathology group 100%
Description: Rats (Crj: Wistar, male, 5-week-old) were purchased, grouped after acclimation for 6 days, and fasted for 20 hr.
After the fasting, Streptosotocin (hereinafter STZ, 50 mg/kg (2 mL/kg)) was administered to the tail vein.
After 24 hr from the STZ administration, the blood glucose level was measured, and the rats with blood glucose level of not less than 250 mg/dL were considered as STZ induced diabetic rat (measurement tool: ACCU-CHEK Aviva, Roche Diagnostics K.K.) (group 2-group 4).
From the next day of the blood glucose level measurement, saline, test substance 1 and test substance 2 were repetitively instilled to groups 2-4 into both eyes (10 μL for each eye) 3 times a day (9:00, 13:00, 17:00). The cataract suppression rate of the test substance at the time point when the onset of the pathology model group 2 reached 100% (Day 46) was determined. Saline was repetitively instilled in the same manner to the group free of streptosotocin administration (group 1).
In addition, the day when the nuclear part of the crystalline lens became obviously opaque was taken as the cataract onset day.
cataract onset rate: (number of cataract onset eyes/total number of eyes ×100)

Row | SMILES | number of onset eyes (Day 20) ([1]; Day 20, oral, 0.5 wt %, 2 mL/kg once per day, vehicle group 8/12 eyes) | onset of cataract (conclusion in words) ([1]; galactose-fed rats, oral administration, 20 days) | number of onset eyes (STZ induced diabetic rat) | onset of cataract (conclusion in words) (STZ induced diabetic rat) | onset rate (Day 46) (STZ induced diabetic rat) [%]
1 | CC(=O)Nc1nc(CCc2ccc(CC(=O)NN)cc2)cs1 [test substance 1, N-{4-[2-(4-hydrazinocarbonylmethylphenyl)ethyl]-1,3-thiazol-2-yl}acetamide] | 3/12 eyes | suppresses the onset of cataract | 2/8 | suppress the onset of cataract | 25
2 | CC(=O)Nc1nc(CCc2ccc(CCNC(=N)N)cc2)cs1 [test substance 2, N-(4-{2-[4-(2-{[amino(imino)methyl]amino}ethyl)phenyl]ethyl}-1,3-thiazol-2-yl)acetamide] |  |  | 2/10 | suppress the onset of cataract | 20
